Key:
[1] = tested on: chloroquine-resistant strains of Plasmodium falciparum; details: in vivo; cited from earlier work
[2] = tested on: P. Berghei K173 N-strain; assay: blood schizontocidal action, 4-day test according to Peters; assay type: in vivo, P. Berghei in mice; details: component alone, oral, mice, mean of three experiments
Procedure: The synergism between the components benflumetol and artemether is determined according to the method of Peters: Am. Trop. Med. Parasitol Vol. 62, pg. 488-492 (1968).
Blood schizintocidal action of artemether (A) and benflumetol (B) admimistered orally in varying proportions to mice infected with P. Berghei K173 N-strain in "4-day test" according to Peters (Mean values of three experiments)

[3] = tested on: protozoa; assay: rate of killing protozoa in vivo in mice; details: 20× ED90 intragastrically
Procedure: The rate of killing protozoa was determined in-vivo. When the protozoa concentration in the blood of mice increased to high density, a multiple dose equivalent, i.e. 20× ED90 was given intragastrically. The rate of decrease of protozoae in blood was observed uninterruptedly after administration.

[4] = tested on: pernicious malaria protozoae; assay: clinical therapeutic effect of individual components compared to combination; assay type: in vivo, patients (human); details: oral, 3 days and 4 doses; for time for disappearance of protozoae: average; for rate of decrease in protozoae at 24 hours: 20 patients per group
Excerpt: Determination of therapeutic effect of individual components as compared to synergistic combination: Two groups of patients were selected for oral administration and the 3 days and 4 doses treatment scheme. There were 20 patients with pernicious malaria in each group. The therapeutic effect of the combination and artemether and benflumetol singly were compared separately. The doses of both drugs in individual administration were about the same as in the complex prescription. The parameters determined were: 1) the rate for decrease of protozoa at 24 h post administrationem; 2) average time for disappearance of protozoae; 3) average time for fever subsidence; and 4) cure rate at the 28th day.

[5] = toxicity and tolerability of benflumetol (general statement)
Excerpt: The dose of the active component benflumetol (I) as contained in the pharmaceutical composition may vary within wide limits and depends on the condition of the patient and the time period elapsed after the outbreak of the disease.

SMILES | activity against chloroquine-resistant strains of Plasmodium falciparum in man [1] | Effective dose of first component ED50 [2] | Effective dose of first component ED90 [2] | killing of protozoae ([3]; before their number increased again) | time for disappearance of protozoae [4] | 28-day cure rate [4] | average time for fever subsidence [4] | rate of decrease in protozoae at 24 hours [4] | timespan required for 90% decrease of the protozoae [3] | tolerability [5] | toxicity [5]
C[C@@H]1CC[C@H]2[C@@H](C)C(=O)O[C@@H]3O[C@@]4(C)CC[C@@H]1[C@]32OO4 [Artemisinine] | active against chloroquine-resistant strains of Plasmodium falciparum in man |  |  |  |  |  |  |  |  |  | 
CO[C@H]1O[C@@H]2O[C@@]3(C)CC[C@H]4[C@H](C)CC[C@@H]([C@H]1C)[C@@]24OO3 [artemether] |  | 2.00 mg/kg/day | 5.30 mg/kg/day | could not kill protozoae by more than 90% before their number increased again | 38.7 h | 45% | 19.7 h | 95.1% |  |  | 
CCCCN(CCCC)CC(O)c1cc(Cl)cc2c1-c1ccc(Cl)cc1C2=Cc1ccc(Cl)cc1 (centres unmarked) [benflumetol] |  | 1.30 mg/kg/day | 2.70 mg/kg/day |  | 68.4 h | 65% | 40 h | 74.5% | 64.3 h | high tolerability | low toxicity
